Measured values from ChEMBL document CHEMBL4680273, “Teixobactin: A Paving Stone toward a New Class of Antibiotics?” (2020).
≈ marks a conversion by molar mass, not a printed value. Where a SMILES comes first, the peptide text is derived from it. Bridges are numbered along the chain shown (N, C = ends). [ ]: non-standard residue; d: D form. d(aIle) = CC[C@H](C)[C@@H](N)C(=O)O; dNMeF = CN[C@H](Cc1ccccc1)C(=O)O

Tests used:
Assay type in all cases: functional
Staphylococcus aureus [1] = assay: Antibacterial activity against methicillin resistant Staphylococcus aureus
Staphylococcus aureus [2] = assay: Antibacterial activity against Staphylococcus aureus ATCC 29213
Staphylococcus aureus [3] = assay: Antibacterial activity against Staphylococcus aureus SH1000 incubated for 24 hrs by CLSI-broth microdilution method
Staphylococcus aureus [4] = assay: Antibacterial activity against Staphylococcus aureus ATCC 29213 by CLSI-based broth microdilution method
Staphylococcus aureus [5] = assay: Antibacterial activity against Staphylococcus aureus ATCC 29213 incubated for 24 hrs by CLSI-based broth microdilution method
Staphylococcus aureus [6] = assay: Antibacterial activity against methicillin resistant Staphylococcus aureus ATCC 33591 incubated for 24 hrs
Bacillus subtilis [7] = assay: Antibacterial activity against Bacillus subtilis 168 incubated for 24 hrs
Bacillus subtilis [8] = assay: Antibacterial activity against Bacillus subtilis ATCC 6051 incubated for 16 hrs by UV/Visible absorbance method
Staphylococcus aureus [9] = assay: Antibacterial activity against Staphylococcus aureus ATCC 29213 incubated for 16 hrs by UV/Visible absorbance method
[10] = Staphylococcus aureus, SH1000, read-out: MIC

CC[C@H](C)[C@H](NC(=O)[C@@H](Cc1ccccc1)NC)C(=O)N[C@@H](CO)C(=O)N[C@H](CCC(N)=O)C(=O)N[C@@H](C(=O)N[C@H](C(=O)N[C@@H](C)C(=O)N[C@H]1C(=O)N[C@@H](C)C(=O)N[C@@H](CCCCN)C(=O)N[C@@H]([C@@H](C)CC)C(=O)O[C@H]1C)[C@@H](C)CC)[C@@H](C)CC gave an MIC (Staphylococcus aureus [1]) of 32 µg/mL (≈ 26.7 µM) and an MIC (Staphylococcus aureus [2]) of 32 µg/mL (≈ 26.7 µM).

Compound CCCC1NC(=O)[C@H](CCCNC(=N)N)NC(=O)[C@H](C)NC(=O)[C@H](NC(=O)[C@H](CO)NC(=O)[C@@H](NC(=O)[C@H](NC(=O)[C@@H](CCC(N)=O)NC(=O)[C@H](CO)NC(=O)[C@@H](NC(=O)[C@@H](Cc2ccccc2)NC)[C@@H](C)CC)[C@@H](C)CC)[C@@H](C)CC)[C@H](C)OC1=O (stereo partly specified) has an MIC (Staphylococcus aureus [3]; [10]) of 8 µg/mL (≈ 6.5 µM).

Work on CC[C@H](C)[C@H](NC(=O)[C@H](NC(=O)[C@@H](CCC(N)=O)NC(=O)[C@H](CO)NC(=O)[C@@H](NC(=O)[C@H](Cc1ccccc1)N(C)C)[C@@H](C)CC)[C@@H](C)CC)C(=O)N[C@@H](CO)C(=O)N[C@H]1C(=O)N[C@@H](C)C(=O)N[C@@H](CCCNC(=N)N)C(=O)N[C@@H]([C@@H](C)CC)C(=O)O[C@H]1C yielded an MIC (Staphylococcus aureus [4]) of 32 µg/mL (≈ 25.4 µM).

In the case of CC[C@H](C)[C@H](NC(=O)[C@H](Cc1ccccc1)NC)C(=O)N[C@@H](CO)C(=O)N[C@H](CCC(N)=O)C(=O)N[C@@H](C(=O)N[C@H](C(=O)N[C@@H](CO)C(=O)N[C@H]1C(=O)N[C@@H](C)C(=O)N[C@@H](CCCNC(=N)N)C(=O)N[C@@H]([C@@H](C)CC)C(=O)O[C@H]1C)[C@@H](C)CC)[C@@H](C)CC, the MIC (Staphylococcus aureus [5]) was 2 µg/mL (≈ 1.61 µM).

Work on CCC1NC(=O)[C@H](CCCNC(=N)N)NC(=O)[C@H](C)NC(=O)[C@H](NC(=O)[C@H](CO)NC(=O)[C@@H](NC(=O)[C@H](NC(=O)[C@@H](CCC(N)=O)NC(=O)[C@H](CO)NC(=O)[C@@H](NC(=O)[C@@H](Cc2ccccc2)NC)[C@@H](C)CC)[C@@H](C)CC)[C@@H](C)CC)[C@H](C)OC1=O (stereo partly specified) yielded an MIC (Staphylococcus aureus [3]; [10]) of 16 µg/mL (≈ 13.2 µM).

CC[C@H](C)[C@H](NC(=O)[C@@H](N)Cc1ccccc1)C(=O)N[C@@H](CO)C(=O)N[C@H](CCC(N)=O)C(=O)N[C@@H](C(=O)N[C@H](C(=O)N[C@@H](CO)C(=O)N[C@H]1C(=O)N[C@@H](C)C(=O)N[C@@H](CCCNC(=N)N)C(=O)N[C@@H]([C@@H](C)CC)C(=O)O[C@H]1C)[C@@H](C)CC)[C@@H](C)CC gave an MIC (Staphylococcus aureus [5]) of 2 µg/mL (≈ 1.63 µM).

Work on CC[C@H](C)[C@H](NC(=O)[C@@H](Cc1ccccc1)NC(=O)c1ccccc1)C(=O)N[C@@H](CO)C(=O)N[C@H](CCC(N)=O)C(=O)N[C@@H](C(=O)N[C@H](C(=O)N[C@@H](CO)C(=O)N[C@H]1C(=O)N[C@@H](C)C(=O)N[C@@H](CCCNC(=N)N)C(=O)N[C@@H]([C@@H](C)CC)C(=O)O[C@H]1C)[C@@H](C)CC)[C@@H](C)CC yielded an MIC (Staphylococcus aureus [5]) of 8 µg/mL (≈ 5.99 µM).

CC[C@H](C)[C@H](NC(=O)[C@@H](Cc1ccccc1)NC)C(=O)N[C@@H](CO)C(=O)N[C@H](CCC(N)=O)C(=O)N[C@@H](C(=O)N[C@H](C(=O)N[C@@H](CO)C(=O)N[C@H]1C(=O)N[C@@H](C)C(=O)N[C@@H](CCNC(=N)N)C(=O)N[C@@H]([C@@H](C)CC)C(=O)O[C@H]1C)[C@@H](C)CC)[C@@H](C)CC was tested, and the MIC (Staphylococcus aureus [6]) was 1 µg/mL (≈ 0.813 µM) and the MIC (Bacillus subtilis [7]) was 0.5 µg/mL (≈ 0.406 µM).

With CC[C@H](C)[C@H](NC(=O)[C@@H](C)NC(=O)[C@@H](CCC(N)=O)NC(=O)[C@H](CO)NC(=O)[C@@H](NC(=O)[C@@H](Cc1ccccc1)NC)[C@@H](C)CC)C(=O)N[C@@H](CO)C(=O)N[C@H]1C(=O)N[C@@H](C)C(=O)N[C@@H](CCCCN)C(=O)N[C@@H]([C@@H](C)CC)C(=O)O[C@H]1C the MIC (Bacillus subtilis [8]) was 16 µg/mL (≈ 13.6 µM).

Work on CC[C@H](C)[C@H](NC(=O)[C@@H](Cc1ccccc1)N(C)C)C(=O)N[C@@H](CO)C(=O)N[C@H](CCC(N)=O)C(=O)N[C@@H](C(=O)N[C@H](C(=O)N[C@@H](CO)C(=O)N[C@H]1C(=O)N[C@@H](C)C(=O)N[C@@H](CCCNC(=N)N)C(=O)N[C@@H]([C@@H](C)CC)C(=O)O[C@H]1C)[C@@H](C)CC)[C@@H](C)CC yielded an MIC (Staphylococcus aureus [5]) of 16 µg/mL (≈ 12.7 µM).

In the case of CC[C@H](C)[C@H](NC(=O)[C@@H](Cc1ccccc1)NC)C(=O)N[C@@H](CO)C(=O)N[C@H](CCC(N)=O)C(=O)N[C@@H](C(=O)N[C@H](C(=O)N[C@@H](CO)C(=O)N[C@H]1C(=O)N[C@@H](C)C(=O)N[C@@H](CCCCN)C(=O)N[C@@H](C)C(=O)O[C@H]1C)[C@@H](C)CC)[C@@H](C)CC (H-[dNMeF]IS[dQ][d(aIle)]IS[dT]AKA; ester 8-C), the MIC (Staphylococcus aureus [9]) was 4 µg/mL (≈ 3.41 µM) and the MIC (Bacillus subtilis [8]) was 8 µg/mL (≈ 6.81 µM).

For CCCCC1NC(=O)[C@H](CCCN/C(=N\C)NC)NC(=O)[C@H](C)NC(=O)[C@H](NC(=O)[C@H](CO)NC(=O)[C@@H](NC(=O)[C@H](NC(=O)[C@@H](CCC(N)=O)NC(=O)[C@H](CO)NC(=O)[C@@H](NC(=O)[C@@H](Cc2ccccc2)NC)[C@@H](C)CC)[C@@H](C)CC)[C@@H](C)CC)[C@H](C)OC1=O (stereo in doubt; 127), the MIC (Staphylococcus aureus [3]) was 16 µg/mL (≈ 12.6 µM).

CCCCC1NC(=O)[C@H](CCCN/C(=N\C)NC)NC(=O)[C@H](C)NC(=O)[C@H](NC(=O)[C@H](CO)NC(=O)[C@@H](NC(=O)[C@H](NC(=O)[C@@H](CCC(N)=O)NC(=O)[C@H](CO)NC(=O)[C@@H](NC(=O)[C@@H](Cc2ccccc2)NC)[C@@H](C)CC)[C@@H](C)CC)[C@@H](C)CC)[C@H](C)OC1=O (stereo in doubt; 128) gave an MIC (Staphylococcus aureus [3]; [10]) of 16 µg/mL (≈ 12.6 µM).
